Measurements from patent US20210130445A1 (priority 2019, published 2021).

B1: erenumab (antibody, chains of the INN, looked up, V domains shown)
VH: QVQLVESGGGVVQPGRSLRLSCAASGFTFSSFGMHWVRQAPGKGLEWVAVISFDGSIKYSVDSVKGRFTISRDNSKNTLFLQMNSLRAEDTAVYYCARDRLNYYDSSGYYHYKYYGMAVWGQGTTVTVSS
VL: QSVLTQPPSVSAAPGQKVTISCSGSSSNIGNNYVSWYQQLPGTAPKLLIYDNNKRPSGIPDRFSGSKSGTSTTLGITGLQTGDEADYYCGTWDSRLSAVVFGGGTKLTVL

How the values were obtained:
[1] = parameters: species or system human; conditions: in vivo, sc
[2] = parameters: species or system human; unit not given here; conditions: in vivo

| Molecule | patient-reported pain [1] | duration of significant pain alleviation [2] |
| --- | --- | --- |
| C[C@@H]1[C@H](c2c(F)ccc(F)c2F)C[C@H](NC(=O)c2cnc3c(c2)C[C@@]2(C3)C(=O)Nc3ncccc32)C(=O)N1CC(F)(F)F [atogepant] | pain free |  |
| onabotulinumtoxinA | pain free | one to about six |
| B1 |  | one to about six |
